Results as given in US9012642B2, “Pyrrolopyridinone compounds and methods for treating HIV” (ViiV Healthcare UK Limited, priority 2011, dated 2015).
Read-outs that look alike come from different tables or passages of the source.

Tested on: HIV
Experiment: HIV MT4 Assay (antiviral HIV activity in MT-4 cells)
Assay type: cell-based
Experimental: Antiviral HIV activity and cytotoxicity values for compounds of the invention from Table 1 were measured in parallel in the HTLV-1 transformed cell line MT-4 based on the method previously described (Hazen et al., 2007, In vitro antiviral activity of the novel, tyrosyl-based human immunodeficiency virus (HIV) type 1 protease inhibitor brecanavir (GW640385) in combination with other antiretrovirals and against a panel of protease inhibitor-resistant HIV (Hazen et al., “In vitro antiviral activity of the novel, tyrosyl-based human immunodeficiency virus (HIV) type 1 protease inhibitor brecanavir (GW640385) in combination with other antiretrovirals and against a panel of protease inhibitor-resistant HIV”, Antimicrob. Agents Chemother. 2007, 51: 3147-3154; and Pauwels et al., “Sensitive and rapid assay on MT-4 cells for the detection of antiviral compounds against the AIDS virus”, (J. of Virological Methods 1987, 16: 171-185).
Luciferase activity was measured 96 hours later by adding a cell titer glo (Promega, Madison, Wis.). Percent inhibition of cell protection data was plotted relative to no compound control. Under the same condition, cytotoxicity of the compounds was determined using cell titer Glo™ (Promega, Madison, Wis.). IC50s were determined from a 10 point dose response curve using 3-4-fold serial dilution for each compound, which spans a concentration range >1000 fold.
These values are plotted against the molar compound concentrations using the standard four parameter logistic equation: y=((Vmax*x^n)/(K^n+x^n))+Y^2
Y^2=minimum y n=slope factor
Vmax=maximum y x=compound concentration [M]

[1] = Human immunodeficiency virus 1, MT4, HTLV-1 transformed cell line MT-4, luciferase activity measured 96 hours later, Table 3, read-out: HIV MT4 Assay IC50
[2] = MT4, 96 h, read-out: MT4 (IC50)

| SMILES | IC50 [1] [µM] | IC50 [2] [µM] |
| --- | --- | --- |
| Cn1c(C(OC(C)(C)C)C(=O)O)c(-c2ccc(Cl)cc2)c2ccn(S(=O)(=O)c3ccc(F)cc3)c2c1=O (stereo not drawn) [Example 16, 2-(tert-butoxy)-2-(4-(4-chlorophenyl)-1-((4-fluorophenyl)sulfonyl)-6-methyl-7-oxo-6,7-dihydro-1H-pyrrolo[2,3-c]pyridin-5-yl)acetic acid] | 1.8 | 1.8 |
| Cc1ccc(-c2c(C(OC(C)(C)C)C(=O)O)n(C)c(=O)c3c2ccn3Cc2cccs2)cc1 (stereo not drawn) [Example 25, 2-(tert-butoxy)-2-(6-methyl-7-oxo-1-(thiophen-2-ylmethyl)-4-(p-tolyl)-6,7-dihydro-1H-pyrrolo[2,3-c]pyridin-5-yl)acetic acid] | 0.22 | 0.22 |
| Cc1ccc(S(=O)(=O)n2ccc3c(-c4ccc(Cl)cc4)c(C(OC(C)(C)C)C(=O)O)n(C)c(=O)c32)cc1 (stereo not drawn) [Example 17, 2-(tert-butoxy)-2-(4-(4-chlorophenyl)-6-methyl-7-oxo-1-tosyl-6,7-dihydro-1H-pyrrolo[2,3-c]pyridin-5-yl)acetic acid] | 1.2 | 1.2 |
| Cc1ccc(-c2c(C(OC(C)(C)C)C(=O)O)n(C)c(=O)c3c2ccn3Cc2ccc(SC(F)(F)F)cc2)cc1 (stereo not drawn) [Example 23, 2-(tert-butoxy)-2-(6-methyl-7-oxo-4-(p-tolyl)-1-(4-((trifluoromethyl)thio)benzyl)-6,7-dihydro-1H-pyrrolo[2,3-c]pyridin-5-yl)acetic acid] | 1.5 | 1.5 |
| Cc1ccc(-c2c(C(OC(C)(C)C)C(=O)O)n(C)c(=O)c3c2ccn3Cc2ccc(C(N)=O)cc2)cc1 (stereo not drawn) [Example 22, 2-(tert-butoxy)-2-(1-(4-carbamoylbenzyl)-6-methyl-7-oxo-4-(p-tolyl)-6,7-dihydro-1H-pyrrolo[2,3-c]pyridin-5-yl)acetic acid] | 8.7 | 8.7 |
| Cc1c(-c2c(C(OC(C)(C)C)C(=O)O)n(C)c(=O)c3c2ccn3Cc2cc(F)ccc2F)ccc2c1CCCO2 (stereo not drawn) [Example 48, 2-(tert-butoxy)-2-(1-(2,5-difluorobenzyl)-6-methyl-4-(5-methylchroman-6-yl)-7-oxo-6,7-dihydro-1H-pyrrolo[2,3-c]pyridin-5-yl)acetic acid] | 0.03 | 0.03 |
| CC(C)Cn1ccc2c(-c3ccc(Cl)cc3)c(C(OC(C)(C)C)C(=O)O)n(C)c(=O)c21 (stereo not drawn) [Example 5, 2-(tert-butoxy)-2-(4-(4-chlorophenyl)-1-isobutyl-6-methyl-7-oxo-6,7-dihydro-1H-pyrrolo[2,3-c]pyridin-5-yl)acetic acid] | 5 | 5 |
| Cc1ccc(-c2c(C(OC(C)(C)C)C(=O)O)n(C)c(=O)c3c2ccn3Cc2ccc(Cl)c(F)c2)cc1 (stereo not drawn) [Example 31, 2-(tert-butoxy)-2-(1-(4-chloro-3-fluorobenzyl)-6-methyl-7-oxo-4-(p-tolyl)-6,7-dihydro-1H-pyrrolo[2,3-c]pyridin-5-yl)acetic acid] | 0.11 | 0.11 |
| Cc1c(-c2c(C(OC(C)(C)C)C(=O)O)n(C)c(=O)c3c2ccn3CC2CCOCC2)ccc2c1CCCO2 (stereo not drawn) [Example 52, 2-(tert-butoxy)-2-(6-methyl-4-(5-methylchroman-6-yl)-7-oxo-1-((tetrahydro-2H-pyran-4-yl)methyl)-6,7-dihydro-1H-pyrrolo[2,3-c]pyridin-5-yl)acetic acid] | 0.35 | 0.35 |
| Cc1c(-c2c(C(OC(C)(C)C)C(=O)O)n(C)c(=O)c3c2ccn3Cc2ccc(C(F)(F)F)cc2)ccc2c1CCCO2 (stereo not drawn) [Example 46, 2-(tert-butoxy)-2-(6-methyl-4-(5-methylchroman-6-yl)-7-oxo-1-(4-(trifluoromethyl)benzyl)-6,7-dihydro-1H-pyrrolo[2,3-c]pyridin-5-yl)acetic acid] | 0.09 | 0.09 |
| Cc1c(-c2c(C(OC(C)(C)C)C(=O)O)n(C)c(=O)c3c2ccn3CC2CCCCC2)ccc2c1CCCO2 (stereo not drawn) [Example 51, 2-(tert-butoxy)-2-(1-(cyclohexylmethyl)-6-methyl-4-(5-methylchroman-6-yl)-7-oxo-6,7-dihydro-1H-pyrrolo[2,3-c]pyridin-5-yl)acetic acid] | 0.1 | 0.1 |
| Cc1c(-c2c(C(OC(C)(C)C)C(=O)O)n(C)c(=O)c3c2ccn3Cc2ccccc2)ccc2c1CCCO2 (stereo not drawn) [Example 38, 2-(1-benzyl-6-methyl-4-(5-methylchroman-6-yl)-7-oxo-6,7-dihydro-1H-pyrrolo[2,3-c]pyridin-5-yl)-2-(tert-butoxy)acetic acid] | 0.07 | 0.07 |
| Cc1c(-c2c(C(OC(C)(C)C)C(=O)O)n(C)c(=O)c3c2ccn3C)ccc2c1CCCO2 (stereo not drawn) [Example 40, 2-(tert-butoxy)-2-(1,6-dimethyl-4-(5-methylchroman-6-yl)-7-oxo-6,7-dihydro-1H-pyrrolo[2,3-c]pyridin-5-yl)acetic acid] | 0.5 | 0.5 |
| Cc1ccc(-c2c(C(OC(C)(C)C)C(=O)O)n(C)c(=O)c3c2c2c(n3Cc3ccc(F)cc3)CCCC2)cc1 (stereo not drawn) [Example 59, 2-(tert-butoxy)-2-(9-(4-fluorobenzyl)-2-methyl-1-oxo-4-(p-tolyl)-2,5,6,7,8,9-hexahydro-1H-pyrido[3,4-b]indol-3-yl)acetic acid] | 0.28 | 0.28 |
| Cc1ccc(-c2c(C(OC(C)(C)C)C(=O)O)n(C)c(=O)c3c2ccn3Cc2ccc3nonc3c2)cc1 (stereo not drawn) [Example 20, 2-(1-(benzo[c][1,2,5]oxadiazol-5-ylmethyl)-6-methyl-7-oxo-4-(p-tolyl)-6,7-dihydro-1H-pyrrolo[2,3-c]pyridin-5-yl)-2-(tert-butoxy)acetic acid] | 0.16 | 0.16 |
